Experimental data taken from US20230265151A1, “GIP/GLP1 CO-AGONIST COMPOUNDS” (priority 2020, published 2023).
Read-outs that look alike come from different tables or passages of the source.

Experiments:
hGLP-1R = hGLP-1R (Homo sapiens, UniProt P43220); assay: Functional cAMP formation (HTRF) in HEK-293 clonal cells expressing hGLP-1R, 0.1% bovine casein, without or with 1.0% human serum albumin; assay type: cell-based; set-up: expressed in transfected cells; settings: 37° C.; for Emax: HEK293, cAMP, 0.1% bovine casein, percent of maximal response to GLP-1(7-36)NH2, arithmetic mean, read-out: hGLP-1R Emax, % ± SEM; for EC50: cAMP, read-out: hGLP-1R EC50, nM (SEM, n)
hGLP-1R, sequence (P43220 24-463): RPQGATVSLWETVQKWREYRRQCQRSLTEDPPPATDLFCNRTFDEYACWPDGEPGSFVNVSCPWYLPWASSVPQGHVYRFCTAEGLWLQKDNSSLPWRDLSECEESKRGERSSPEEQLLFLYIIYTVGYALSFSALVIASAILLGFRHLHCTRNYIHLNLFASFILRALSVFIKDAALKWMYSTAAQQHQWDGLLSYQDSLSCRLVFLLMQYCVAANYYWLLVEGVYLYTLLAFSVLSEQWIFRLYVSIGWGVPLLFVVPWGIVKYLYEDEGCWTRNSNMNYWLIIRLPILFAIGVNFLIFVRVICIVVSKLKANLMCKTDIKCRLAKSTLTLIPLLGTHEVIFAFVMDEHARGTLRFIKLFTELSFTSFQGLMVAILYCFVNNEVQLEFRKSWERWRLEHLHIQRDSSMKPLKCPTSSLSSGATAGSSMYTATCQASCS
Procedure, shortened: (§1)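 Readings of the HTRF 665/620 nm ratio, which falls as cAMP rises, were converted to nM cAMP using a standard curve after 30 min peptide exposure at 37° C.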

[1] = biological target: T1, human GIP receptor (hGIPR) (Homo sapiens, UniProt P48546); assay: [125I]-GIP binding, SPA with membranes of CHO cells expressing hGIPR; settings: human GIPR; geometric mean (SEM, n); read-out: Binding Affinity Ki, nM (SEM, n) hGIPR
T1 construct: expressed in transfected cells; crude membranes
T1 sequence (P48546 22-466): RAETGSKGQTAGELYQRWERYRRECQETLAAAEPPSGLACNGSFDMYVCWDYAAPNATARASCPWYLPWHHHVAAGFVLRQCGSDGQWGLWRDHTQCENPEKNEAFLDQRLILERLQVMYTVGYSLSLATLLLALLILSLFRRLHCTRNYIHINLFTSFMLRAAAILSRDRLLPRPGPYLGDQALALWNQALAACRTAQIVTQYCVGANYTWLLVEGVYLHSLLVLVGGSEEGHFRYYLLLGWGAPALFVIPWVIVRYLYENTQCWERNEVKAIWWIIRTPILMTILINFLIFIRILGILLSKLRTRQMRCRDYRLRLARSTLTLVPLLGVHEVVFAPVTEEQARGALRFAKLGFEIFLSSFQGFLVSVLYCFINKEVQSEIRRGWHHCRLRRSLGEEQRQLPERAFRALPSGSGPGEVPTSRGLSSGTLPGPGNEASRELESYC

hGCGR = biological target: T2, hGCGR (Homo sapiens, UniProt P47871); assay: Functional cAMP formation (HTRF) in HEK-293 clonal cells expressing hGCGR, 0.1% bovine casein, without or with 1.0% human serum albumin; assay type: cell-based; settings: cAMP, 37° C., read-out: hGCGR EC50, nM (SEM, n)
T2 construct: expressed in transfected cells
T2 sequence (P47871 26-477): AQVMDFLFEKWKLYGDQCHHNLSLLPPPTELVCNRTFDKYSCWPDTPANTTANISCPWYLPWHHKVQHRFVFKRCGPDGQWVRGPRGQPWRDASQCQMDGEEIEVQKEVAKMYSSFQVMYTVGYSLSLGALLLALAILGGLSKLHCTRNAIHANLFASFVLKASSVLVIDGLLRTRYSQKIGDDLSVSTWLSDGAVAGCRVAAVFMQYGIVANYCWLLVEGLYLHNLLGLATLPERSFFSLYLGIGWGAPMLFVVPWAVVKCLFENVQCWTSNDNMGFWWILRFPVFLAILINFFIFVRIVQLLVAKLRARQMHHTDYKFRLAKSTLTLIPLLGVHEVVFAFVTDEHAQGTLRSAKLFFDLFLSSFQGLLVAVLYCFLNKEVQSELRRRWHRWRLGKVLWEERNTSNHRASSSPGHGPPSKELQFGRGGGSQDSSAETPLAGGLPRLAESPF
Procedure, shortened: as §1

hGIPR = biological target: T3, hGIPR (Homo sapiens, UniProt P48546); assay: Functional cAMP formation (HTRF) in HEK-293 clonal cells expressing hGIPR, 0.1% bovine casein, without or with 1.0% human serum albumin; assay type: cell-based; settings: 37° C.; for Emax: HEK293, cAMP, percent of maximal response to GIP(1-42)NH2, read-out: hGIPR Emax, % ± SEM; for EC50: cAMP, read-out: hGIPR EC50, nM (SEM, n)
T3 construct: expressed in transfected cells
T3 sequence (P48546 22-466): T1 sequence (P48546 22-466)
Procedure, shortened: as §1

[2] = biological target: T4, human Gcg receptor (hGcgR) (Homo sapiens, UniProt P47871); assay: [125I]-Glucagon binding, SPA with membranes of HEK293 cells expressing hGcgR; settings: human GcgR; geometric mean (SEM, n); read-out: Binding Affinity Ki, nM (SEM, n) hGCGR
T4 construct: expressed in transfected cells; crude membranes
T4 sequence (P47871 26-477): as above

[3] = biological target: T5, human GLP-1 receptor (hGLP-1R) (Homo sapiens, UniProt P43220); assay: [125I]-GLP-1 binding, SPA with membranes of HEK293 cells expressing hGLP-1R; settings: human GLP-1R; geometric mean (SEM, n); read-out: Binding Affinity Ki, nM (SEM, n) hGLP-1R
T5 construct: expressed in transfected cells; crude membranes
T5 sequence (P43220 24-463): as the sequence (P43220 24-463) above

[4] = 0.1% bovine casein (no human serum albumin), geometric mean
[5] = 0.1% bovine casein and 1.0% human serum albumin, geometric mean (SEM, n)
[6] = 0.1% bovine casein and 1.0% human serum albumin

| SMILES | Emax (hGLP-1R) | EC50 (hGLP-1R; [4]) | EC50 (hGLP-1R; [5]) | Ki [1] | EC50 (hGCGR; [4]) | EC50 (hGCGR; [5]) | Emax (hGIPR; [6]) | EC50 (hGIPR; [4]) | EC50 (hGIPR; [5]) | Ki [2] | Ki [3] |
| --- | --- | --- | --- | --- | --- | --- | --- | --- | --- | --- | --- |
| CC[C@H](C)[C@H](NC(=O)[C@H](CC(C)C)NC(=O)[C@](C)(Cc1ccc(O)cc1)NC(=O)[C@H](CCCCNC(=O)COCCOCCNC(=O)COCCOCCNC(=O)CC[C@H](NC(=O)CCCCCCCCCCCCC(=O)O)C(=O)O)NC(=O)[C@@H](NC(=O)[C@H](Cc1ccccc1)NC(=O)[C@H](CCC(=O)O)NC(=O)C(C)(C)NC(=O)[C@H](CCC(N)=O)NC(=O)[C@H](C)NC(=O)[C@H](CCC(N)=O)NC(=O)[C@H](CCCN)NC(=O)[C@H](CC(=O)O)NC(=O)[C@H](CC(C)C)NC(=O)[C@](C)(CC(C)C)NC(=O)[C@@H](NC(=O)C(C)(C)NC(=O)[C@H](Cc1ccncc1)NC(=O)[C@H](CC(=O)O)NC(=O)[C@H](CO)NC(=O)[C@@H](NC(=O)[C@](C)(Cc1ccccc1F)NC(=O)[C@@H](NC(=O)CNC(=O)[C@H](CCC(=O)O)NC(=O)C(C)(C)NC(=O)[C@@H](N)Cc1ccc(O)cc1)[C@@H](C)O)[C@@H](C)O)[C@@H](C)CC)[C@@H](C)CC)C(=O)N[C@@H](CCCCNC(=O)COCCOCCNC(=O)COCCOCCNC(=O)CC[C@H](NC(=O)CCCCCCCCCCCCC(=O)O)C(=O)O)C(=O)NCC(=O)NCC(=O)N1CCC[C@H]1C(=O)N[C@@H](CO)C(=O)N[C@@H](CO)C(=O)NCC(=O)N[C@@H](C)C(=O)N1CCC[C@H]1C(=O)N1CCC[C@H]1C(=O)N1CCC[C@H]1C(=O)N[C@@H](CO)C(N)=O [Example 411] | 110% | 0.167 nM | 11.4 nM | 0.0375 nM | > 9950 nM | > 9950 nM | 84.6% | 0.0102 nM | 1.09 nM | > 957 nM | – |
| CC[C@H](C)[C@H](NC(=O)[C@H](CC(C)C)NC(=O)[C@](C)(Cc1ccc(O)cc1)NC(=O)[C@H](CCCCNC(=O)CCCCCNC(=O)COCCOCCNC(=O)CC[C@H](NC(=O)CCCCCCCCCCCCC(=O)O)C(=O)O)NC(=O)[C@@H](NC(=O)[C@H](Cc1ccccc1)NC(=O)[C@H](CCCN)NC(=O)C(C)(C)NC(=O)[C@H](CCC(N)=O)NC(=O)[C@H](C)NC(=O)[C@H](CCC(N)=O)NC(=O)[C@H](CCCN)NC(=O)[C@H](CC(=O)O)NC(=O)[C@H](CC(C)C)NC(=O)[C@](C)(CC(C)C)NC(=O)[C@@H](NC(=O)C(C)(C)NC(=O)[C@H](Cc1ccncc1)NC(=O)[C@H](CC(=O)O)NC(=O)[C@H](CO)NC(=O)[C@@H](NC(=O)[C@](C)(Cc1ccccc1F)NC(=O)[C@@H](NC(=O)CNC(=O)[C@H](CCC(=O)O)NC(=O)C(C)(C)NC(=O)[C@@H](N)Cc1ccc(O)cc1)[C@@H](C)O)[C@@H](C)O)[C@@H](C)CC)[C@@H](C)CC)C(=O)N[C@@H](CCCCNC(=O)CCCCCNC(=O)COCCOCCNC(=O)CC[C@H](NC(=O)CCCCCCCCCCCCC(=O)O)C(=O)O)C(=O)NCC(=O)NCC(=O)N1CCC[C@H]1C(=O)N[C@@H](CO)C(=O)N[C@@H](CO)C(=O)NCC(=O)N[C@@H](C)C(=O)N1CCC[C@H]1C(=O)N1CCC[C@H]1C(=O)N1CCC[C@H]1C(=O)N[C@@H](CO)C(N)=O [Example 451] | 118% | 0.172 nM | – | 0.0239 nM | > 9950 nM | > 9950 nM | 89.5% | 0.0113 nM | – | 258 nM | 0.234 nM |
| CC[C@H](C)[C@H](NC(=O)[C@H](CC(C)C)NC(=O)[C@](C)(Cc1ccc(O)cc1)NC(=O)[C@H](CCCCNC(=O)COCCOCCNC(=O)COCCOCCNC(=O)COCCOCCNC(=O)CC[C@H](NC(=O)CCCCCCCCCCCCC(=O)O)C(=O)O)NC(=O)[C@@H](NC(=O)[C@H](Cc1ccccc1)NC(=O)[C@H](CCC(=O)O)NC(=O)C(C)(C)NC(=O)[C@H](CCC(N)=O)NC(=O)[C@H](C)NC(=O)[C@H](CCC(N)=O)NC(=O)[C@H](CCCN)NC(=O)[C@H](CC(=O)O)NC(=O)[C@H](CC(C)C)NC(=O)[C@](C)(CC(C)C)NC(=O)[C@@H](NC(=O)C(C)(C)NC(=O)[C@H](Cc1ccncc1)NC(=O)[C@H](CC(=O)O)NC(=O)[C@H](CO)NC(=O)[C@@H](NC(=O)[C@](C)(Cc1ccccc1F)NC(=O)[C@@H](NC(=O)CNC(=O)[C@H](CCC(=O)O)NC(=O)C(C)(C)NC(=O)[C@@H](N)Cc1ccc(O)cc1)[C@@H](C)O)[C@@H](C)O)[C@@H](C)CC)[C@@H](C)CC)C(=O)N[C@@H](CCCCNC(=O)COCCOCCNC(=O)COCCOCCNC(=O)COCCOCCNC(=O)CC[C@H](NC(=O)CCCCCCCCCCCCC(=O)O)C(=O)O)C(=O)NCC(=O)NCC(=O)N1CCC[C@H]1C(=O)N[C@@H](CO)C(=O)N[C@@H](CO)C(=O)NCC(=O)N[C@@H](C)C(=O)N1CCC[C@H]1C(=O)N1CCC[C@H]1C(=O)N1CCC[C@H]1C(=O)N[C@@H](CO)C(N)=O [Example 460] | 111% | 0.187 nM | 6.31 nM | 0.0528 nM | > 9950 nM | > 9950 nM | 89.5% | 0.0108 nM | – | > 959 nM | – |
| CC[C@H](C)[C@H](NC(=O)[C@H](CC(C)C)NC(=O)[C@](C)(Cc1ccc(O)cc1)NC(=O)[C@@H](CCC(=O)O)NC(=O)[C@@H](NC(=O)[C@H](Cc1ccccc1)NC(=O)[C@H](CCCCNC(=O)COCCOCCNC(=O)COCCOCCNC(=O)CC[C@H](NC(=O)CCCCCCCCCCCCC(=O)O)C(=O)O)NC(=O)C(C)(C)NC(=O)[C@H](CCC(N)=O)NC(=O)[C@H](C)NC(=O)[C@H](CCC(N)=O)NC(=O)[C@H](CCCN)NC(=O)[C@H](CC(=O)O)NC(=O)[C@H](CC(C)C)NC(=O)[C@](C)(CC(C)C)NC(=O)[C@@H](NC(=O)C(C)(C)NC(=O)[C@H](Cc1ccncc1)NC(=O)[C@H](CC(=O)O)NC(=O)[C@H](CO)NC(=O)[C@@H](NC(=O)[C@](C)(Cc1ccccc1F)NC(=O)[C@@H](NC(=O)CNC(=O)[C@H](CCC(=O)O)NC(=O)C(C)(C)NC(=O)[C@@H](N)Cc1ccc(O)cc1)[C@@H](C)O)[C@@H](C)O)[C@@H](C)CC)[C@@H](C)CC)C(=O)N[C@@H](CCCCNC(=O)COCCOCCNC(=O)COCCOCCNC(=O)CC[C@H](NC(=O)CCCCCCCCCCCCC(=O)O)C(=O)O)C(=O)NCC(=O)NCC(=O)N1CCC[C@H]1C(=O)N[C@@H](CO)C(=O)N[C@@H](CO)C(=O)NCC(=O)N[C@@H](C)C(=O)N1CCC[C@H]1C(=O)N1CCC[C@H]1C(=O)N1CCC[C@H]1C(=O)N[C@@H](CO)C(N)=O [Example 488] | 113% | 0.207 nM | 13 nM | 0.064 nM | > 10100 nM | > 9950 nM | 85.5% | 0.0115 nM | 0.718 nM | > 958 nM | – |
